Test results taken from paper PMC3345088 (Journal of Immunology (Baltimore, Md. : 1950), 2012).

Tested on: purified HLA class II DR, DP and DQ molecules
Assay: MHC-peptide binding assays
Design: species or system human
Settings: allele as in inferred restricting HLA allele column

Substance	Binding to the allelic variant shared by all responders
ESAT-6 73–87: 15-mer peptide epitope, residues 73–87 of ESAT-6 (Rv3875) (ARTISEAGQAMASTE; UniProt P9WNK7 73-87, looked up, fragment)	high affinity
CFP10 52–66: 15-mer peptide epitope, residues 52–66 of CFP10 (Rv3874)	high affinity
